Values after ≈ are worked out from the molar mass of the structure shown. Read-outs that look alike come from different tables or passages of the source. Ends that are not written are not given here.
Columns and labels:
Eenterococcus faecalis = tested on: Eenterococcus faecalis
Description: (§1) MICs of the peptides against six standard bacteria and four multidrug-resistant bacteria were determined by a broth microdilution assay as described previously. […] Cytotoxicities against mammalian cells were measured against human RBCs, mouse macrophage-derived RAW264.7 cells, and fibroblast NIH-3T3 cells. The anti-inflammatory activities of the peptides were examined by inhibiting nitrite production in LPS-stimulated RAW264.7 cells.

Escherichia coli = conditions: 16 h
Description: as §1

Bacillus subtilis = conditions: 16 h
Description: as §1

Staphylococcus aureus = conditions: 16 h
Description: as §1

Pseudomonas aeruginosa = conditions: 16 h
Description: as §1

Salmonella typhimurium = conditions: murium, 16 h
Description: as §1

[1] = tested on: gram-negative bacteria (E. coli, S. typhimurium, P. aeruginosa); conditions: for Therapeutic Index (MHC/GM), gram-negative: ratio MHC (μM) over GM of MIC (μM)
Description: (§2) This property is assessed by the therapeutic index which can be defined as a ratio of the […] against human hRBCs to the MIC against bacterial cells.
as §1

[2] = tested on: gram-positive bacteria (B. subtilis, E. faecalis, S. aureus); conditions: for Therapeutic Index (MHC/GM), gram-positive: ratio MHC (μM) over GM of MIC (μM)
Description: as §2, §1

MDREC 1229(R) = conditions: 16 h
Description: (§3) We examined the antimicrobial activities of the peptides against multidrug-resistant bacterial strains, including four gram-negative species (S. typhimurium 8009(R), E. coli 1229(R), P. aeruginosa 2095(R), and A. baumannii 12035(R); Table 3).
as §1

MDRST 8009(R) = conditions: broth microdilution, 16 h; unit not given
Description: as §3, §1

MDRAB 12035(R) = conditions: broth microdilution, 16 h; unit not given
Description: as §3, §1

MDRPA 2095(R) = conditions: 16 h
Description: as §3, §1

human erythrocytes = test: Hemolytic activity; assay type: cell-based; conditions: human RBCs; 200 μM entered when no detectable hemolysis at 100 μM
Description: (§4) We examined the cytotoxicity against human erythrocytes. […] Next, we examined the cytotoxicity of the peptides against RAW264.7 macrophage cells. We assessed the effects of the peptides on cell growth by measuring mitochondrial reduction of MTT to a colored product in live cells. […] On the other hand, PapC produced high cytotoxicity against RAW264.7 cells, even at low concentrations. […] In case of PapN-2A, Pap-5A, and Pap-2A5A, the cell survival rates at a peptide concentration of 100 μM were approximately 90% or more. Thus, Trp^2 and Phe^5 are important for the cytotoxic activity of papiliocin toward RAW264.7 cells.
as §1

[3] = Calcein leakage from zwitterionic LUVs; conditions: EYPC/CH 10:1 LUVs, mimic human erythrocytes
Description: Figure 5 Dose-response curves of calcein leakage from (A) egg yolk phosphatidylcholine (EYPC)/egg yolk phosphatidylglycerol (EYPG) (7:3, w:w) and (B) EYPC/cholesterol (CH) large unilamellar vesicles (LUVs; 10:1, w-w) induced by the peptides. Calcein leakage was measured 2 min after the addition of papiliocin. The lipid concentration used in the leakage experiments was 64 μM.
None of the peptides containing the N-terminal helix permeated zwitterionic vesicles (10:1 [w/w] EYPC/CH) effectively. Zwitterionic vesicles mimic the outer leaflet components of human erythrocytes.
In order to investigate the mode of action, membrane permeabilization ability was monitored using a model membrane and E.coli. Calcein leakage induced by the peptides was measured in egg yolk phosphatidylcholine (EYPC)/egg yolk phosphatidylglycerol (EYPG) (7:3, w/w) and EYPC/cholesterol (CH) large unilamellar vesicles (LUVs; 10:1, w:w) as described previously. The depolarization assay was conducted with intact E. coli bacteria (KCTC 1682) as well as E. coli spheroplasts (ATCC 25922)[51][52]. The ability of peptide to depolarize the membrane is indicated by an increase in the fluorescence of diSC3-5. […] The membrane potential dissipating activity of the peptides can be calculated as follows: […]

[4] = tested on: RAW264.7 macrophage cells; test: Cytotoxicity, MTT; assay type: cell-based, mouse
Description: as §4, §1

[5] = broth microdilution, unit not given

| Compound | MIC, Eenterococcus faecalis (Eenterococcus faecalis; E, 16 h) | MIC, Escherichia coli (Escherichia coli) | MIC, Bacillus subtilis (Bacillus subtilis) | MIC, Staphylococcus aureus (Staphylococcus aureus) | MIC, Pseudomonas aeruginosa (Pseudomonas aeruginosa) | MIC, Salmonella typhimurium (Salmonella typhimurium) | GM of the MIC values, gram-negative ([1]; 16 h) | Therapeutic Index (MHC/GM), gram-negative [1] | GM of the MIC values, gram-positive ([2]; 16 h) | Therapeutic Index (MHC/GM), gram-positive [2] | MIC, MDREC 1229(R) (MDREC 1229(R)) | MIC, MDRST 8009(R) (MDRST 8009(R)) | MIC, MDRAB 12035(R) (MDRAB 12035(R)) | MIC, MDRPA 2095(R) (MDRPA 2095(R)) | other results |
| --- | --- | --- | --- | --- | --- | --- | --- | --- | --- | --- | --- | --- | --- | --- | --- |
| RAKIFKKIEKVGRNVRDGIIKA-NH2 [PapN-2A] | 128 µM | 2.00 µM | 32.0 µM | 32.0 µM | 4.00 µM | 4.00 µM | 3.33 µM | 60.0 | 64.0 µM | 3.13 | 2.00 µM | 2.00 µM | 8.00 µM | 4.00 µM |  |
| CC[C@H](C)[C@H](NC(=O)CN)C(=O)NCC(=O)N[C@@H](C)C(=O)N[C@H](C(=O)N[C@@H](CC(C)C)C(=O)N[C@@H](CCCCN)C(=O)N[C@H](C(=O)N[C@@H](CC(C)C)C(=O)N[C@H](C(=O)N[C@H](C(=O)NCC(=O)N[C@@H](CC(C)C)C(=O)N1CCC[C@H]1C(=O)N[C@@H](C)C(=O)N[C@@H](CC(C)C)C(=O)N[C@H](C(=O)N[C@@H](CO)C(=O)N[C@@H](Cc1c[nH]c2ccccc12)C(=O)N[C@H](C(=O)N[C@@H](CCCCN)C(=O)N[C@@H](CCCNC(=N)N)C(=O)N[C@@H](CCCCN)C(=O)N[C@@H](CCCNC(=N)N)C(=O)N[C@@H](CCC(N)=O)C(=O)N[C@@H](CCC(N)=O)C(N)=O)[C@@H](C)CC)[C@@H](C)CC)[C@@H](C)O)[C@@H](C)O)C(C)C)C(C)C [Melittin, reference compound] |  |  |  |  |  |  |  | 0.098 |  | 0.117 |  | 8.00 µM (≈ 22.8 µg/mL) | 4.00 µM (≈ 11.4 µg/mL) |  | MHC (minimal peptide concentration that produces hemolysis) (human erythrocytes): 0.391 µM; MIC, Eenterococcus faecalis (Eenterococcus faecalis; broth microdilution, 16 h incubation, three independent experiments in triplicate, SD 14.0%): 2.00 µM (≈ 5.69 µg/mL); permeabilization of zwitterionic vesicles, in words [3]: membrane-disrupting activities against both negatively charged and zwitterionic vesicles; GM of the MIC values, gram-negative ([1]; three gram-negative standard strains, 256 μM used when no activity at 128 μM): 4.00 µM; GM of the MIC values, gram-positive ([2]; three gram-positive standard strains, 256 μM used when no activity at 128 μM): 3.33 µM; MIC, MDREC 1229(R) (MDREC 1229(R); [5]): 8.00 µM (≈ 22.8 µg/mL); MIC, MDRPA 2095(R) (MDRPA 2095(R); [5]): 2.00 µM (≈ 5.69 µg/mL); cytotoxicity at the peptide's MIC ([4]; hRBCs and RAW264.7 cells (Fig. 4A,B)): high cytotoxicity at its MIC |
| RAKIFKKIEKVGRNVRDGIIKAGPAVAVVGQAATVVK-NH2 [Papiliocin-2A] | 128 µM | 0.250 µM | 64.0 µM | 128 µM | 0.500 µM | 0.500 µM | 0.417 µM |  | 107 µM | 1.87 | 1.00 µM | 1.00 µM | 0.500 µM | 1.00 µM |  |
| RAKIAKKIEKVGRNVRDGIIKA-NH2 [PapN-2A5A] | >128 µM | 2.00 µM | >128 µM | 128 µM | 8.00 µM | 4.00 µM | 4.67 µM | 42.9 | 213 µM | 0.939 | 4.00 µM | 8.00 µM | 32.0 µM | 16.0 µM |  |
| RWKIAKKIEKVGRNVRDGIIKAGPAVAVVGQAATVVK-NH2 [Papiliocin-5A] | 128 µM | 0.250 µM | 64.0 µM | 128 µM | 0.500 µM | 0.500 µM | 0.417 µM |  | 107 µM | 1.87 | 1.00 µM | 1.00 µM | 0.500 µM | 1.00 µM |  |
| RFKIWKKIEKVGRNVRDGIIKA-NH2 [PapN-2F5W] | 64.0 µM | 1.00 µM | 8.00 µM | 16.0 µM | 2.00 µM | 2.00 µM | 1.67 µM | 120 | 29.3 µM |  | 2.00 µM | 2.00 µM | 4.00 µM | 2.00 µM |  |
| RAKIAKKIEKVGRNVRDGIIKAGPAVAVVGQAATVVK-NH2 [Papiliocin-2A5A] | >128 µM | 0.500 µM | 128 µM | >128 µM | 0.500 µM | 1.00 µM | 0.667 µM |  | 213 µM | 0.939 | 2.00 µM | 4.00 µM | 0.500 µM | 1.00 µM |  |
| RWKIAKKIEKVGRNVRDGIIKA-NH2 [PapN-5A] | 128 µM | 1.00 µM | 16.0 µM | 16.0 µM | 2.00 µM | 2.00 µM | 1.67 µM | 120 | 53.3 µM | 3.75 | 2.00 µM | 4.00 µM | 8.00 µM | 8.00 µM |  |
| RWKIFKKIEKVGRNVRDGIIKAGPAVAVVGQAATVVK-NH2 [Papiliocin] | 64.0 µM | 0.250 µM | 16.0 µM | 32.0 µM | 0.500 µM | 0.500 µM | 0.417 µM |  | 37.3 µM | 5.36 | 0.500 µM | 0.500 µM | 0.500 µM | 1.00 µM | Therapeutic Index (MHC/GM), gram-positive ([2]; listed as papiliocin): 12.0; cytotoxicity at the peptide's MIC [4]: not toxic at their MICs |
| RWKIFKKIEKVGRNVRDGIIKA-NH2 [PapN] | 64.0 µM | 1.00 µM | 8.00 µM | 8.00 µM | 2.00 µM | 2.00 µM | 1.67 µM | 120 | 26.7 µM |  | 4.00 µM | 2.00 µM | 2.00 µM | 2.00 µM |  |
